molecular target: Cytochrome P450 2C9 (Homo sapiens, UniProt P11712); assay: Binding affinity towards cytochrome P450 2C9; type: ADME
Sequence (P11712 whole entry): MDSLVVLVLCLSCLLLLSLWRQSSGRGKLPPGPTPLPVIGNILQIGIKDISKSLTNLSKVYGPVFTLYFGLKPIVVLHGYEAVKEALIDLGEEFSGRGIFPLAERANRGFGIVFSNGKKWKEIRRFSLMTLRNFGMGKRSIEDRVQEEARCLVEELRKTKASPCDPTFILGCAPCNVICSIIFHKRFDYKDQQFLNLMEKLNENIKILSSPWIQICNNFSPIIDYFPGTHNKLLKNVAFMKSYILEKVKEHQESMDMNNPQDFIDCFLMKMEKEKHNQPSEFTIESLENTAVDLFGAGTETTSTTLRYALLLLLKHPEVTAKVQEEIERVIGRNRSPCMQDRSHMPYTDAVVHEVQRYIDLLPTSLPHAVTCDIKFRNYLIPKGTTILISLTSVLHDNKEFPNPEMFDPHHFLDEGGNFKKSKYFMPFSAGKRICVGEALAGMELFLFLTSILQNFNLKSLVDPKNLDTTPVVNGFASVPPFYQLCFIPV

Ki | Compound
125 µM | O=C1NC(=O)C2(N1)c1ccccc1-c1ccccc12
20 µM | Nc1c(Oc2ccc(Cl)cc2Cl)ccc(Cl)c1S(=O)(=O)O
145 µM | COc1ccnc(C[S@@+]([O-])c2nc3cc(OC(F)F)ccc3[nH]2)c1OC
140 µM | COC(=O)c1ccc2nc([S@+]([O-])Cc3nccc(OC)c3OC)[nH]c2c1
60 µM | [O-][S@@+](Cc1cc(OCC2CC2)ccn1)c1nc2ccc(F)cc2[nH]1
64 µM | COC(=O)c1ccc2[nH]c([S@@+]([O-])Cc3nccc(OC)c3OC)nc2c1
93 µM | [O-][S@+](Cc1cc(OCC2CC2)ccn1)c1nc2cc(F)ccc2[nH]1
64 µM | COc1ccnc(C[S@+]([O-])c2nc3cc(OC(F)F)ccc3[nH]2)c1OC
17 µM | Cc1nn(C)c(C)c1NC(=O)c1ccccc1NS(=O)(=O)c1cc(Cl)sc1Cl
16 µM | CO[C@]1(C)C[C@H](c2ccccc2)C2C(=O)Oc3ccccc3C2O1 (some centres undefined)
8.5 µM | COCCCC/C(=N\OCCN)c1ccc(C(F)(F)F)cc1 [FLUVOXAMINE]
6 µM | O=c1c(O)c(-c2ccc(O)cc2)oc2cc(O)cc(O)c12 [KAEMPFEROL]
35 µM | COc1ccc2nc(S(=O)(=O)Cc3ncc(C)c(OC)c3C)[nH]c2c1 [OMEPRAZOLE SULFONE]
45 µM | COc1ccc2[nH]c([S+]([O-])Cc3ncc(C)c(OC)c3C)nc2c1 (centres undefined) [OMEPRAZOLE]
19 µM | CCCCC1C(=O)N(c2ccccc2)N(c2ccccc2)C1=O [PHENYLBUTAZONE]
245 µM | c1ccc2[nH]c(-c3cscn3)nc2c1 [THIABENDAZOLE]
2.5 µM | COc1cc(C(=O)NS(=O)(=O)c2ccccc2C)ccc1Cc1cn(C)c2ccc(NC(=O)OC3CCCC3)cc12 [ZAFIRLUKAST]

Compound | Ki
COCCCOc1ccnc(C[S@+]([O-])c2nc3ccccc3[nH]2)c1C | 37 µM
CC(=O)C[C@H](c1ccccc1)C1C(=O)Oc2ccccc2C1O (some centres undefined) | 13.6 µM
Clc1ccc(CO[C@H](Cn2ccnc2)c2ccc(Cl)cc2Cl)c(Cl)c1 | 6 µM
CO[C@@]1(C)C[C@H](c2ccccc2)c2c(c3ccccc3oc2=O)O1 | 16 µM
Clc1ccc(CO[C@@H](Cn2ccnc2)c2ccc(Cl)cc2Cl)c(Cl)c1 [(R)-MICONAZOLE] | 6 µM
COCCCOc1ccnc(C[S@@+]([O-])c2nc3ccccc3[nH]2)c1C [DEXRABEPRAZOLE] | 36 µM
CC(=O)[C@H]1CC[C@H]2[C@@H]3CCC4=CC(=O)CC[C@]4(C)[C@H]3CC[C@]12C [PROGESTERONE] | 5.5 µM

— ChEMBL document CHEMBL1148414, “Conformer- and alignment-independent model for predicting structurally diverse competitive CYP2C9 inhibitors” (J Med Chem, 2004)
